# According to patent US12257339B2, “Phytocomplex and extract of a meristematic cell line selected from a plant belonging to the genus Rosa” (AETHERA BIOTECH S.R.L., priority 2019, dated 2025):
# Assay: Antioxidant activity, DPPH method
# Type: biochemical
# Conditions: methanol extract/solution; absorbance at 517 nm
# Description: The assay of antioxidant activity was performed using the DPPH method. The assay with the DPPH (2,2-diphenyl-1-picryl-hydrazyl) radical has the aim of evaluating, in vitro, the antioxidant activity of the line of Rosa […] vis-à-vis a stained stable radical and measuring its disappearance by spectrophotometry. […] The Rc-F2P homogenate of meristematic cells of Rosa […] extracted in methanol and placed in an ultrasonic bath for 20 minutes. Various aliquots of solution were taken and they were added to a same amount of DPPH solution and brought to volume with methanol, so as to evaluate the antioxidant capacity of the sample at different concentrations. The results are expressed as EC50, i.e. as the concentration of the Rc-F2P phytocomplex capable of decreasing the initial absorbance of the radical at 517 nm by 50%. The result is then compared with that obtained from a methanol solution of ascorbic acid, used as a reference. The lower the EC50, the greater the antioxidant capacity.
compound,measurement,value
"O=C1O[C@H]([C@@H](O)CO)C(O)=C1O [Ascorbic acid, ascorbic acid]",EC50 (concentration decreasing the initial absorbance of the DPPH radical at 517 nm by 50%),3.19 ± 0.16 µg/mL
